Experimental data taken from PMC11200976, “Pitavastatin Calcium Confers Fungicidal Properties to Fluconazole by Inhibiting Ubiquinone Biosynthesis and Generating Reactive Oxygen Species” (Antioxidants, 2024).
Like-named read-outs stand apart in the source and are kept apart here.

How the values were obtained:
C. albicans [1] = assay: Broth microdilution assay of synergistic lethality with 4 μg/mL FLC (recovery on drug-free YPD); format: cell-based, Candida albicans; details: with 4 μg/mL FLC; tested 100 μM to 0.1953 μM; 30 °C, 48 h
C. albicans [2] = assay: Dose–matrix titration assays (synergy, with YPD recovery plates); format: cell-based, Candida albicans; details: FLC ≤4 μg/mL; YPD, 30 °C, 48 h
Method: The synergistic effects of drugs were conducted following the same procedure as the MIC assays. Specifically, 50 μL of drug A was distributed through two-fold serial dilution across seven plate columns. Subsequently, 50 μL of drug B was distributed in a two-fold serial dilution manner along seven rows of the plate. Furthermore, 100 μL of C. albicans cultures, adjusted to a density of 1 × 10^3 cells/mL, was dispensed into wells containing drugs and one control well devoid of any drugs. Before the 48 h OD600 readings, the plates were subjected to meticulous agitation to ensure the deposition of a representative 2 μL aliquot from each well onto newly prepared YPD recovery plates, thereby facilitating the evaluation of cellular recuperation following drug treatments. The recovery plates were subsequently incubated at a temperature of 30 °C for a duration ranging from 24 to 48 h, after which they were photographed. The experimental procedures were conducted in triplicate to ensure reliability and reproducibility.

C. albicans [3] = assay: Determination of MFC; format: cell-based, Candida albicans; details: as low as
Method: The determination of MFC followed the previously described method. In brief, a tested drug at a concentration two times higher than the final concentration was diluted in a two-fold serial dilution manner across ten columns of the plate, with each well containing 100 μL of the drug. Subsequently, 100 μL of C. albicans cultures (1 × 10^4 cells/mL) were transferred into wells with and without any drugs as the control. Following incubation at 30 °C for 48 h, a 200 μL aliquot per well was removed and evenly spread on SDA plates, which were then incubated at 30 °C for 48 h. The MFC value was determined as the lowest drug concentration at which 99.9% of fungal colonies were eradicated compared to the control group.

[4] = test system: C. albicans SC5314, SN152, cmp1-aid∆/cmp1-aid∆, and PADH1-UPC2 strains; assay: FLC disk diffusion assays (25 μg FLC disk, 5 μM adjuvant); format: cell-based, Candida albicans; details: SC5314, SN152, cmp1-aid∆/cmp1-aid∆, PADH1-UPC2
Method: Yeast cells were cultured overnight at a temperature of 30 °C, and the resulting cell suspension was diluted to a concentration of 1 × 10^7 cells/mL in phosphate-buffered saline (PBS). At a concentration of 5 μM, the drugs were individually added to YPD plates for disk assays using a 25 μg FLC disk (6 mm, Liofilchem, Roseto degli Abruzzi, Italy). The plates were then incubated at 30 °C for 48 h. Subsequently, the disk was transferred to a drug-free YPD plate, which was incubated at 30 °C for 24 h and photographed.

[5] = test system: ERG1, ERG11, and ERG251 genes; format: cell-based, Candida albicans; details: 2 μM PIT alone, 8 h
C. albicans [6] = assay: Spotting assay; format: cell-based, Candida albicans; details: 4 μM PIT; compared to wild-type strain and other heterozygous gene deletion mutants
Method: The spotting assays were conducted following the previously described method. In summary, C. albicans cultures were adjusted to a cell density of 1 × 10^7 cells/mL using a hemacytometer. Subsequently, the cultures were serially diluted 1:10 and spotted onto a designated YPD solid medium containing specified concentrations of compounds. Following incubation at 30 °C for 48 h, photographs capturing the cell growth were taken, and the assays were replicated thrice.

C. albicans [7] = assay: MIC assays (CLSI M27 broth microdilution); format: cell-based, Candida albicans; details: for MIC: Candida albicans
Method: The MIC assays for C. albicans were conducted following the broth microdilution protocol outlined by the Clinical and Laboratory Standards Institute (CLSI) protocols (M27, 4th edition). In brief, FDA-approved drugs were diluted in 96-well plates at two-fold the final concentration, with 4 μg/mL FLC. This dilution was combined with the cell suspension with a concentration of 1 × 10^3 cells/mL. The plates were incubated at a temperature of 30 °C for 48 h without agitation.

[8] = Acute toxicity, Up-and-Down procedure (OECD 425), intraperitoneal; format: in vivo; details: C57BL/6, mouse, in vivo, ip, mice
Method: Following a previously described methodology, the intraperitoneal route was employed in adult mice. In brief, the primary test involved a sequential administration of doses at intervals of at least 48 h, with one mouse being dosed at a time. Initially, a dose below LD50 was administered intraperitoneally to a mouse. If the mouse survived, the subsequent mouse would receive 1.3 times the initial dose. Conversely, if the mouse died, the subsequent mouse would receive a dose decreased by 1.3 times the initial dose. Each mouse was monitored for 48 h before determining the subsequent mouse’s dosage and administration. The experiment was terminated upon five “survive or die” reversals within a consecutive set of six animals tested. Subsequently, the LD50 and its corresponding confidence interval were computed based on the conditions observed in all mice after the experiment.

With `O=C(O)C[C@H](O)C[C@H](O)/C=C/c1c(C2CC2)nc2ccccc2c1-c1ccc(F)cc1` [PIT, pitavastatin calcium] the “synergistic lethal concentration (converts FLC from fungistatic to fungicidal)” value (C. albicans [1]) was no more than 6.25 µM, the “concentration that renders FLC fungicidal (no recovery on YPD solid medium)” value (C. albicans [2]) was no more than 3.125 µM and the “concentration of PIT that renders FLC fungicidal” value (C. albicans [3]) was 1 µM. The “effect on FLC tolerance in FLC disk diffusion, all four strains” value [4] was “made FLC fungicidal”, the “mRNA expression level of ERG1 gene, upregulation” value [5] was 2 fold and the “mRNA expression level of ERG11 gene, upregulation” value [5] was 2 fold. The “mRNA expression level of ERG251 gene, upregulation” value [5] was 2 fold, the “susceptibility of HMG1/hmg1Δ, ERG8/erg8Δ and IDI1/idi1Δ mutants to PIT” value (C. albicans [6]) was “more susceptible” and the “antifungal efficacy of PIT with exogenous ergosterol” value (C. albicans [7]; 100 μM exogenous ergosterol, SN152, MIC and spotting assays) was “negated”. The “antifungal effects of PIT with exogenous mevalonate” value (C. albicans [7]; 100 μM exogenous mevalonate, SN152, MIC and spotting assays) was “mitigated”, the MIC (C. albicans [7]; SEC14/sec14△, YPD, read-out: MIC of PIT) was 2 µM and the MIC (C. albicans [7]; SN152, YPD, read-out: MIC of PIT) was 2 µM. It also gave an MIC (C. albicans [7]; age3△/age3△, YPD, read-out: MIC of PIT) of 2 µM, an MIC (C. albicans [7]; control strain (wild-type), read-out: MIC of PIT) of 3.12 µg/mL and an MIC (C. albicans [7]; hac1△/hac1△, YPD, read-out: MIC of PIT) of 2 µM. It also gave an MIC (C. albicans [7]; hse1△/hse1△, YPD, read-out: MIC of PIT) of 2 µM, an MIC (C. albicans [7]; ire1△/ire1△, YPD, read-out: MIC of PIT) of 2 µM and an MIC (C. albicans [7]; mvb12△/mvb12△, YPD, read-out: MIC of PIT) of 2 µM. The MIC (C. albicans [7]; read-out: MIC of PIT, erg11∆/erg11∆ null mutant) was 0.195 µg/mL, the MIC (C. albicans [7]; snf7△/snf7△, YPD, read-out: MIC of PIT) was 2 µM and the MIC (C. albicans [7]; vps20△/vps20△, YPD, read-out: MIC of PIT) was 2 µM. It also gave an MIC (C. albicans [7]; vps22△/vps22△, YPD, read-out: MIC of PIT) of 2 µM, an MIC (C. albicans [7]; vps23△/vps23△, YPD, read-out: MIC of PIT) of 2 µM and an MIC (C. albicans [7]; vps28△/vps28△, YPD, read-out: MIC of PIT) of 2 µM. It also gave an MIC (C. albicans [7]; vps36△/vps36△, YPD, read-out: MIC of PIT) of 2 µM and an LD50 at 48 h [8] of 104 mg/kg.
